Entries after “also recorded” stand apart in the source; their conditions may differ.
Tests used:
HEK293(hTau) cells = assay: CCK8 cell viability assay; type: cell-based, human; details: to 200 μM, 24 h; normalized to 0-μM group; F(4, 25) = 1.47, P = 0.24
Experimental: HEK293 cells with stable expression of wild-type full-length human tau (term as HEK293(hTau) cells), were cultured in DMEM (Hyclone, SH30022.01) containing 10% fetal bovine serum (Biological Industries, 04–001-1ACS) and […] G418 (Thermo Fisher Scientific, 10,131,027) under 5% CO2, 37 °C.
HEK293(hTau) cells were administrated with increasing concentration of DEPTAC for 24 h. About 5000 cells were dispensed into each well of a 96-well plate pre-incubated in a humidified incubator under 37 °C, 5% CO2. A total volume of 10 μL CCK-8 solution was delivered into each well of the plate. The plate was incubated for 1–4 h, and the light absorbance was measured at 450 nm using a microplate reader (BioTek-Synergy2). Cell viability (V) was evaluated by the formula: V = (Ad – A0) / (Av – A0) × 100%, where Ad and Av was the absorbance of DEPTAC-treated and vehicle-treated cells, respectively. A0 was the absorbance of wells with only culture medium and CCK8.

human tau (hTau) = assay: Western blotting of phospho-tau and total tau in primary neurons with hTau overexpression; type: cell-based
Experimental: Lentivirus LV-EF1α-hTau-GFP (3.50E+8 vg/mL) was packaged by OBiO (Shanghai, China) and used for hTau-overexpression (fused with GFP) in cultured primary rat neurons. AAV-CaMKIIα-Cre (diluted to 5.21E + 07 vg/mL) and AAV-EF1α-DIO-mCherry (3.24E + 12 vg/mL) were obtained from BrainVTA (Wuhan, China) and co-injected (1:1 vol/vol) for sparse labeling of dorsal DG neurons. Doxycycline was purchased from Energy Chemical (Shanghai, China). Rabbit polyclonal DEPTAC antibody was prepared by Daian Biotechnology (Wuhan, China). All other reagents including MG132 were purchased from Sigma-Aldrich (USA), unless otherwise specified.
(§1) Primary hippocampal neurons were prepared from E12–E15 days SD rat embryos. Briefly, pregnant rats were acutely executed, hippocampus was dissected on ice and gently minced in DME/F12 (Hyclone) then suspended in 0.125% (vol/vol) trypsin solution at 37 °C for 20 min. Enzymatic activity was stopped by fetal bovine serum. Neurons were initially kept in 10% FBS-containing DME/F12 for 4–6 h, and subsequently cultured in Neurobasal (Hyclone) with 2% B27, 1% glutamax and 1% penicillin–streptomycin (Thermo Fisher Scientific) in dishes pre-coated with 100 μg/mL poly-D-lysine. Serum was gradually removed by replacing half of the medium for each time within the following 2 days. Especially, to inhibit the proteasome-dependent proteolysis, the cultured hippocampal neurons were treated with 5 μM MG132 for 5 h before harvest.
Cultured cells or hippocampus tissues were collected on ice, and homogenized with RIPA lysis buffer containing 50 mM Tris-HCl, 100 mM NaCl, 1% Triton X-100, 5 mM EDTA, and 1:100 PMSF, and then centrifuged at 12,000 × g for 20 min. The supernatant was collected for the analysis of soluble proteins. In some experiments, the pellets were further incubated with 8% SDS buffer at 37 °C and then ultrasound for 60 times to reach a complete resuspension for the analysis of insoluble tau. Protein concentration was measured through BCA assays (Thermo Fisher). Equal amount of protein from each sample were separated in SDS-PAGE gels, and then transferred onto nitrocellulose or 0.22 μm polyvinylidene fluoride membranes (Merck Millipore). The membranes were blocked with 5% BSA, and incubated in turn with primary and horseradish peroxidase-conjugated secondary antibodies: pS199-Tau (44734G, Invitrogen, 1:2000), pT205-Tau (11108-1, Signalway, 1:2000), pS396-Tau (11102, Signalway, 1:2000), pS404-Tau (11112, Signalway, 1:2000), AT8 (MN1020, Thermo Fisher, 1:1000), Tau5 (ab80579, Abcam, 1:1000), Tau46 (T9450, Sigma, 1:1000), PP2A-Bα (4953, Cell signaling, 1:1000), Phospho-Ser/Thr (ab17464, Abcam1:1000), Ubiquitin (ab7254, Abcam, 1:1000), MAP2 (AB5622, Millipore, 1:2000), hTau-N368 (a generous gift from Prof. Keqiang Ye, Emory University School of Medicine, 1:1000), DEPTAC (developed by Daian Biotechnology, Wuhan, China, 1:500), β-actin (ab6276, Abcam, 1:2000). HRP-conjugated goat anti-rabbit IgG (A0208, Beyotime, 1:3000), HRP-conjugated goat anti-mouse IgG (A0216, Beyotime, 1:3000). Blots were visualized using ECL luminol reagent (P0018FS, Beyotime), and quantified using ImageJ software.

[1] = test system: primary rat hippocampal neurons; assay: Cell penetrability assessment in cultured primary hippocampal neurons; type: in vitro ADME; details: FITC-labeled DEPTAC 100 μM, 24 h, fixed; laser-scanning microscopy (fluorescence)
Experimental: as §1
FITC-labeled DEPTAC (100 μM) was dissolved in sterilized water, and administrated into the medium of cultured primary rat hippocampal neurons for 24 h. Neurons were fixed with 4% paraformaldehyde, co-stained with DAPI (Beyotime), and then washed with PBS for 3 × 5 min. FITC was observed under a laser-scanning microscopy (Zeiss).

[2] = primary rat hippocampal neurons, hTau overexpression
[3] = primary rat neurons, lentivirus-mediated hTau overexpression, dose- and time-dependent, *p < 0.01, n = 3

## (1) YQQYQDATADEQG, originates from the porcine β-tubulin 422–434 for recognizing and binding tau proteins.[5],[6] (2) GSGS, a linker for increasing the flexibility of the peptide.[15] (3) KKVAVVRTPPKSP, for recruiting PP2A-Bα,[16] and (4) RRRRRRRR [DEPTAC, DEPhosphorylation TArgeting Chimera; 38 amino acid residues, C185H314N72O56]
HEK293(hTau) cells
  cytotoxicity (CCK8): No cytotoxicity
Human tau (hTau); discussion, only effective above
  effective concentration of DEPTAC: > 200 µM
Human tau (hTau); discussion, only effective within
  effective time window post-administration: ≤ 3 days
Human tau (hTau); [2]
  concentration of most significant reduction of phospho-tau: 200 to 300 µM
  time post administration of most significant reduction of phospho-tau: ≤ 3 days
Human tau (hTau); [3]
  tau phosphorylation at AT8 (Ser199/Ser202/Thr205) epitope: downregulated; also recorded: promoted tau dephosphorylation
  tau phosphorylation at pS199: downregulated; also recorded: promoted tau dephosphorylation
  tau phosphorylation at pS396: downregulated; also recorded: promoted tau dephosphorylation
  tau phosphorylation at pS404: downregulated; also recorded: promoted tau dephosphorylation
  tau phosphorylation at pT205: downregulated; also recorded: promoted tau dephosphorylation
  total tau probed by Tau5 antibody: reduction of total tau; also recorded: reduced total tau
[1]
  neuron penetrability in vitro: high neuron penetrability; also recorded: High cell penetrability

Source: paper PMC8280143, “A novel dephosphorylation targeting chimera selectively promoting tau removal in tauopathies” (Signal Transduction and Targeted Therapy, 2021)
